Laboratory results as given in US10294229B2, “Heteroaryl substituted aminopyridine compounds” (BRISTOL-MYERS SQUIBB COMPANY, priority 2015, dated 2019).

Assays:
[1] = system: Human whole blood stimulated with a TLR2 agonist (lipoteichoic acid), IL-6 levels; experiment: IRAK4 Whole Blood Assay; assay type: cell-based; conditions: lipoteichoic acid 10 μg/mL
Outline: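 ACD-A-anticoagulated human whole blood was preincubated with compounds for 60 min at 37 °C under 5% CO2. It was then stimulated with 10 μg/mL lipoteichoic acid (final) in RPMI for 5 h. IL-6 in plasma supernatants was measured by flow cytometry bead assay.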

IRAK4 = IRAK4 (Homo sapiens (Human), UniProt Q9NWZ3); experiment: IRAK4 Inhibition Assay; assay type: biochemical; conditions: ATP 500 μM; IRAK4 0.6 nM
Outline: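 Mobility-shift readout: phosphorylated and unphosphorylated fluorescent peptide (1.5 μM) resolved by electrophoresis after a 60 min room-temperature reaction stopped with EDTA. Reaction holds 0.6 nM IRAK4, 500 μM ATP and 1.6% DMSO in HEPES pH 7.2/MgCl2/Brij 35/DTT buffer; percent inhibition set against vehicle and no-enzyme controls.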

Chain of IRAK4 (Q9NWZ3 whole entry, species assumed): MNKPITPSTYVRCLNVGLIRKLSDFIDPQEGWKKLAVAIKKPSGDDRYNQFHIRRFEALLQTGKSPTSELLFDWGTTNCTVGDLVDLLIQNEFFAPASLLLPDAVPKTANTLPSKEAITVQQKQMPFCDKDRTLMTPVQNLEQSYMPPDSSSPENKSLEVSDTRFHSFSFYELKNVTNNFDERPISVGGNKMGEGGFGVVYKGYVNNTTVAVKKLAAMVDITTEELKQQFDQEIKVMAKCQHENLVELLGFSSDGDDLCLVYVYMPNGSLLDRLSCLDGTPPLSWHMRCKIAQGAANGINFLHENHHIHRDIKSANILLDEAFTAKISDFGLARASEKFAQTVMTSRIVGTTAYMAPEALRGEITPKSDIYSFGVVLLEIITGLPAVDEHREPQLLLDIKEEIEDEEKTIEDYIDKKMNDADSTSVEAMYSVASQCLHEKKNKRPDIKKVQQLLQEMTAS

EC50 ([1]; Homo sapiens) [nM] | IC50 (IRAK4) [nM] | EC50 [1] [nM] | Structure (SMILES)
2050 | 9 |  | CC(C)Nc1cc(-n2ncc3cc(C#N)cnc32)ncc1-n1cc(CS(=O)(=O)c2ccccc2)nn1 [Example 332, 1-(4-(isopropylamino)-5-(4-((phenylsulfonyl)methyl)-1H-1,2,3-triazol-1-yl)pyridin-2-yl)-1H-pyrazolo[3,4-b]pyridine-5-carbonitrile]
4700 | 14 |  | CC(C)Nc1cc(-n2ncc3cc(C#N)cnc32)ncc1-n1cc(C2CCN(C(=O)OC(C)(C)C)CC2)nn1 [Example 333, tert-butyl 4-(1-(6-(5-cyano-1H-pyrazolo[3,4-b]pyridin-1-yl)-4-(isopropylamino)pyridin-3-yl)-1H-1,2,3-triazol-4-yl)piperidine-1-carboxylate]
520 | 3 |  | CC(C)Nc1cc(-n2ncc3cc(C#N)cnc32)ncc1-n1cc(C2CCC(NC(C)C)CC2)nn1 (stereo not shown) [Example 343, 1-(4-(isopropylamino)-5-(4-((1 s,4s)-4-(isopropylamino)cyclohexyl)-1H-1,2,3-triazol-1-yl)pyridin-2-yl)-1H-pyrazolo[3,4-b]pyridine-5-carbonitrile]
650 | 3 |  | COC(=O)NC1CCC(c2cn(-c3cnc(-n4ncc5cc(C#N)cnc54)cc3NC(C)C)nn2)CC1 (stereo not shown) [Example 344, methyl ((1s,4s)-4-(1-(6-(5-cyano-1H-pyrazolo[3,4-b]pyridin-1-yl)-4-(isopropylamino)pyridin-3-yl)-1H-1,2,3-triazol-4-yl)cyclohexyl)carbamate]
460 | 20 |  | COC(=O)NCCc1cn(-c2cnc(-n3ncc4cc(C#N)cnc43)cc2NC(C)C)nn1 [Example 352, methyl (2-(1-(6-(5-cyano-1H-pyrazolo[3,4-b]pyridin-1-yl)-4-(isopropylamino)pyridin-3-yl)-1H-1,2,3-triazol-4-yl)ethyl)carbamate]
 | 11 | 430 | CC(F)Cc1cn(-c2cnc(-n3ncc4cc(C#N)cnc43)cc2NC2CC2)nn1 (stereo not shown) [Example 353, 1-(4-(cyclopropylamino)-5-(4-(2-fluoropropyl)-1H-1,2,3-triazol-1-yl)pyridin-2-yl)-1H-pyrazolo[3,4-b]pyridine-5-carbonitrile]
 | 6 | 460 | CC(C)Nc1cc(-n2ncc3cnc(N)nc32)ncc1-n1cc(CCC(C)(C)O)nn1 [Example 380, 4-(1-(6-(6-amino-1H-pyrazolo[3,4-d]pyrimidin-1-yl)-4-(isopropylamino)pyridin-3-yl)-1H-1,2,3-triazol-4-yl)-2-methylbutan-2-ol]
250 | 2 |  | CC(C)(O)CCc1cn(-c2cnc(-n3ncc4cc(C#N)cnc43)cc2NC(C)(C)CO)nn1 [Example 381, 1-(4-((1-hydroxy-2-methylpropan-2-yl)amino)-5-(4-(3-hydroxy-3-methylbutyl)-1H-1,2,3-triazol-1-yl)pyridin-2-yl)-1H-pyrazolo[3,4-b]pyridine-5-carbonitrile]
460 | 5 |  | CC(C)Nc1cc(-n2ncc3cc(C#N)cnc32)ncc1-c1cc(C2CNC2)no1 [Example 397, 1-(5-(3-(azetidin-3-yl)isoxazol-5-yl)-4-(isopropylamino)pyridin-2-yl)-1H-pyrazolo[3,4-b]pyridine-5-carbonitrile]

Continued, compound first:

Structure (SMILES) | EC50 ([1]; Homo sapiens) [nM] | IC50 (IRAK4) [nM] | EC50 [1] [nM]
CCc1cn(-c2cnc(-n3ncc4cc(C#N)cnc43)cc2NC(C)C)nn1 [Example 325, 1-(5-(4-ethyl-1H-1,2,3-triazol-1-yl)-4-(isopropylamino)pyridin-2-yl)-1H-pyrazolo[3,4-b]pyridine-5-carbonitrile] | 990 | 16 | 
CC(=O)N1CCC(c2cn(-c3cnc(-n4ncc5cc(C#N)cnc54)cc3NC(C)C)nn2)CC1 [Example 335, 1-(5-(4-(1-acetylpiperidin-4-yl)-1H-1,2,3-triazol-1-yl)-4-(isopropylamino)pyridin-2-yl)-1H-pyrazolo[3,4-b]pyridine-5-carbonitrile] | 630 | 6 | 
CC(C)Nc1cc(-n2ncc3cc(C#N)cnc32)ncc1-n1cc(C2CCC(N)CC2)nn1 (stereo not shown) [Example 340, 1-(5-(4-((1s,4s)-4-aminocyclohexyl)-1H-1,2,3-triazol-1-yl)-4-(isopropylamino)pyridin-2-yl)-1H-pyrazolo[3,4-b]pyridine-5-carbonitrile] | 810 | 4 | 
CC(C)Nc1cc(-n2ncc3cc(C#N)cnc32)ncc1-n1cc(C2CCC(NC(=O)OC(C)(C)C)CC2)nn1 (stereo not shown) [Example 342, tert-butyl ((1s,4s)-4-(1-(6-(5-cyano-1H-pyrazolo [3,4-b]pyridin-1-yl)-4-(isopropylamino)pyridin-3-yl)-1H-1,2,3-triazol-4-yl)cyclohexyl) carbamate] | 1120 | 2 | 
CCS(=O)(=O)N1CCC(c2cn(-c3cnc(-n4ncc5cc(C#N)cnc54)cc3NC(C)C)nn2)CC1 [Example 346, 1-(5-(4-(1-(ethylsulfonyl)piperidin-4-yl)-1H-1,2,3-triazol-1-yl)-4-(isopropylamino)pyridin-2-yl)-1H-pyrazolo[3,4-b]pyridine-5-carbonitrile] | 460 | 6 | 
CC(C)(O)CCc1cn(-c2cnc(-n3ncc4cc(C#N)cnc43)cc2NCCC(F)(F)F)nn1 [Example 362, 1-(5-(4-(3-hydroxy-3-methylbutyl)-1H-1,2,3-triazol-1-yl)-4-((3,3,3-trifluoropropyl)amino)pyridin-2-yl)-1H-pyrazolo[3,4-b]pyridine-5-carbonitrile] | 440 | 7 | 
CC(C)(O)CCc1cn(-c2cnc(-n3ncc4cc(C#N)cnc43)cc2NC2CCOC2)nn1 [Example 366, (S)-1-(5-(4-(3-hydroxy-3-methylbutyl)-1H-1,2,3-triazol-1-yl)-4-((tetrahydrofuran-3-yl)amino)pyridin-2-yl)-1H-pyrazolo[3,4-b]pyridine-5-carbonitrile] |  | 9 | 410
CC(C)(O)CCc1cn(-c2cnc(-n3ncc4cc(C#N)cnc43)cc2NC2(C)CC2)nn1 [Example 383, 1-(5-(4-(3-hydroxy-3-methylbutyl)-1H-1,2,3-triazol-1-yl)-4-((1-methylcyclopropyl)amino)pyridin-2-yl)-1H-pyrazolo[3,4-b]pyridine-5-carbonitrile] | 370 | 2 | 
CC(C)Nc1cc(-n2ncc3cc(C#N)cnc32)ncc1-n1cc(CC[C@@](C)(O)CO)nn1 [Example 388, (R)-1-(5-(4-(3,4-dihydroxy-3-methylbutyl)-1H-1,2,3-triazol-1-yl)-4-(isopropylamino)pyridin-2-yl)-1H-pyrazolo[3,4-b]pyridine-5-carbonitrile] | 260 | 6 | 
COC(=O)N1CCC[C@@H](c2cc(-c3cnc(-n4ncc5cc(C#N)cnc54)cc3NC(C)C)on2)C1 [Example 408, methyl (R)-3-(5-(6-(5-cyano-1H-pyrazolo[3,4-b]pyridin-1-yl)-4-(isopropylamino)pyridin-3-yl)isoxazol-3-yl)piperidine-1-carboxylate] | 490 | 2 | 
CC(C)Nc1cc(-n2ncc3cc(C#N)cnc32)ncc1-c1cc(C2CCCOC2)no1 (stereo not shown) [Example 416, 1-(4-(isopropylamino)-5-(3-(tetrahydro-2H-pyran-3-yl)isoxazol-5-yl)pyridin-2-yl)-1H-pyrazolo[3,4-b]pyridine-5-carbonitrile] | 480 | 2 | 
